Like-named read-outs stand apart in the source and are kept apart here.
How the values were obtained:
[1] = test system: complement; assay: Inhibition of complement mediated hemolysis; format: cell-based; details: read-out: Inhibition of complement mediated hemolysis (%)
Description: The complement mediated hemolysis is widely used as a means to determine the titration of complement. The principle of this method is based on the fact that hemolysis is caused by the activation of complement, when the latter is added to a complex (immune complex) of erythrocytes and the autibody thereof. The degree of hemolysis varies in proportion to the amount of complement added. Therefore, when a known amount of complement admixed with a C1 esterase inhibitor is used, the hemolysis must be suppressed in proportion to the inhibitory activity.
The anti-C1 esterase (C1r, C1s) activity was determined according to the method of Okamura et al. [K. Okamura, M. Muramatsu and B. Fujii, Biochem. Biophys. […] The inhibition of complement mediated hemolysis was determined according to the method of Baker et al. [B. R. Baker and E. H. Erickson, J. Med. Chem., 12, 408-414 (1969)].

[2] = target: T1, Trypsin (Bos taurus, UniProt P00760); assay: Anti-trypsin activity (hydrolysis of TAME); format: biochemical; details: for IC50: molar concentration inhibiting 50% of TAME hydrolysis, read-out: id50, Trypsin
T1 sequence (P00760 24-246): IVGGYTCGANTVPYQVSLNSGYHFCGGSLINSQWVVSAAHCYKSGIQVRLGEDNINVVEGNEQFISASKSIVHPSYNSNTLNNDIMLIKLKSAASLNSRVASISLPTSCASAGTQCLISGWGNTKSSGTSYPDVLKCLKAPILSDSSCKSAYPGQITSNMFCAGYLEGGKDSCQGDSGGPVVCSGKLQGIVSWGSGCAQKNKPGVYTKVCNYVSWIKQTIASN
Description: (§1) The anti-trypsin, anti-plasmin, anti-kallikrein and anti-thrombin activities were determined according to the method of Muramatsu et al. [M. Muramatsu, T. Onishi, S. Makino, Y. Hayashi and S. Fujii, J. of Biochem., 58, 214 (1965)]. The data summarized in Table 1 are expressed in terms of molar concentration (id50) of the test compound which inhibits 50% of the activity of each enzyme to hydrolyze TAME (tosylarginine methyl ester). The compound No. corresponds to the compound number shown in Examples.

[3] = target: Thrombin (Bos taurus, UniProt P00735); assay: Anti-thrombin activity (hydrolysis of TAME); format: biochemical
Description: as §1

[4] = target: Plasmin (Homo sapiens, UniProt P00747); assay: Anti-plasmin activity (hydrolysis of TAME); format: biochemical; details: molar concentration inhibiting 50% of TAME hydrolysis; read-out: id50, Plasmin
Plasmin, sequence (P00747 581-810 limits assumed): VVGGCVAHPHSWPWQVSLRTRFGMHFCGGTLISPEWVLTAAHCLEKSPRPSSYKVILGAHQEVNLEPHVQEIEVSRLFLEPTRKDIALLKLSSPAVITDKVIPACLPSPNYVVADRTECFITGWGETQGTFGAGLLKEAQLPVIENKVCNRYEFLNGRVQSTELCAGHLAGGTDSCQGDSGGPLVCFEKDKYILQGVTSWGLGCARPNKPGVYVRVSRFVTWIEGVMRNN
Plasmin, sequence (P00747 97-580 partner limits assumed): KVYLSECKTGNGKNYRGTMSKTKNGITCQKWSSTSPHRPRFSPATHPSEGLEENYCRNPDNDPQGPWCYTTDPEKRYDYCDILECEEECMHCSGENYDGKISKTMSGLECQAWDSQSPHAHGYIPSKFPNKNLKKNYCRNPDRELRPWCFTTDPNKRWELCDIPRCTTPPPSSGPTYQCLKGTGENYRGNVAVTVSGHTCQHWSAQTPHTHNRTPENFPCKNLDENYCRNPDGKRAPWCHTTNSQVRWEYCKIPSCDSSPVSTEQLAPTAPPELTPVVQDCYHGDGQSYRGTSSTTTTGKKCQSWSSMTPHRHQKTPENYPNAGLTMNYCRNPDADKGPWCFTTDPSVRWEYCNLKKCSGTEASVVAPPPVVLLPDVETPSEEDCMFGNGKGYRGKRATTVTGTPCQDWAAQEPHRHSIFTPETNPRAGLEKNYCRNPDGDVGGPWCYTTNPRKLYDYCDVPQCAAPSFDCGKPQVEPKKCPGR
Description: as §1

[5] = target: T2, C1r (Homo sapiens, UniProt P00736); assay: Anti-C1 esterase activity, C1r (hydrolysis of AAME); format: biochemical; details: for inhibition at 10 µM: at 1×10^-5 M, read-out: Anti-C1 activity, C1r percent inhibition; for IC50: molar concentration inhibiting 50% of AAME hydrolysis, read-out: Anti-C1 activity, C1r id50
T2 sequence (P00736 464-705 limits assumed): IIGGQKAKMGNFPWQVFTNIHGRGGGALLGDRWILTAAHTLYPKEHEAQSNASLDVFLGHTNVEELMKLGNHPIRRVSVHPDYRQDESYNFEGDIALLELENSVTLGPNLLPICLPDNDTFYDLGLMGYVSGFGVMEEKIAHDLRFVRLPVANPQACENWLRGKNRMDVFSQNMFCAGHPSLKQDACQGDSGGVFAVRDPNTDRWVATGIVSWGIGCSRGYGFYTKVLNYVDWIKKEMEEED
T2 sequence (P00736 18-463 partner limits assumed): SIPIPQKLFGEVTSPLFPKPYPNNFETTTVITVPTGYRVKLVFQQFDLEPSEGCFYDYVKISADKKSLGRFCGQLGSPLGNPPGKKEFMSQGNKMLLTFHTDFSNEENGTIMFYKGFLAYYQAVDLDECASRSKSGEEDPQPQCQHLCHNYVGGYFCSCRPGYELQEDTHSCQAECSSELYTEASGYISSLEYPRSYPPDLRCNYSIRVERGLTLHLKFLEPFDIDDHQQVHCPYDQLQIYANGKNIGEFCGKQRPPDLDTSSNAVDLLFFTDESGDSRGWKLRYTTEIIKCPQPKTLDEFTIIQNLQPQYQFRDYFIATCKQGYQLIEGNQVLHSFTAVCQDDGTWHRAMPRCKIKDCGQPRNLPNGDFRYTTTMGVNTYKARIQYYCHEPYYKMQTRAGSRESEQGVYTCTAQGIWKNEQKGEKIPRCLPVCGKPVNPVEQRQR
Description: The anti-C1 esterase (C1r, C1s) activity was determined according to the method of Okamura et al. [K. Okamura, M. Muramatsu and B. Fujii, Biochem. Biophys. […] The figures in Table 2 have the following meanings:
C1r: Molar concentration of the test compound which inhibits 50% of the ability of C1r to hydrolyse AAME (acetylarginin methyl ester) (id50).

IC50 [2] [µM] | IC50 [3] [µM] | inhibition at 10 µM [5] [%] | Structure (SMILES) | inhibition at 100 µM ([1]; 1 × 10^-4 M) [%] | inhibition at 10 µM ([1]; 1 × 10^-5 M) [%] | inhibition at 1 µM ([1]; 1 × 10^-6 M) [%] | inhibition at 0.1 µM ([1]; 1 × 10^-7 M) [%] | IC50 [4] [µM] | IC50 [5] [µM] | inhibition at 10 µM [1] [%] | inhibition at 0.1 µM [1] [%] | inhibition at 1 µM [1] [%] | inhibition at 100 µM [1] [%] | inhibition at 10 µM ([2]; at 1×10^-5 M, read-out: percentage inhibition, Trypsin) [%]
6 | > 10 | 46 | N=C(N)C=Cc1ccc(OC(=O)[C@H]2CC[C@H](CN)CC2)cc1 [Compound 10, 4-(β-amidinoethenyl)phenyl trans-4-aminomethylcyclohexanecarboxylate] | 100 | 99 | 98 | 74 | 6 | – | – | – | – | – | –
1 | > 10 | – | CN(C)c1ccc(C(=O)Oc2ccc(C=CC(=N)N)cc2)cc1 [Compound 32] | 73 | 80 | 50 | 32 | > 10 | 10 | – | – | – | – | –
– | – | – | N=C(N)C=Cc1ccc(OC(=O)C=Cc2ccccc2Cl)cc1 [Compound 40] | 15 | – | 0 | 0 | – | – | 3 | – | – | – | –
9 | 8 | 38 | CC(C)Cc1ccc(C(C)C(=O)Oc2ccc(C=CC(=N)N)cc2)cc1 (stereo not drawn) [Compound 14] | 0 | 74 | 10 | 0 | 8 | – | – | – | – | – | –
7 | > 10 | 31 | N=C(N)C=Cc1ccc(OC(=O)CCCCCNC(=O)OCc2ccccc2)cc1 [Compound 7, 4-(β-amidinoethenyl)phenyl 6-benzyloxycarbonylaminocaproate] | 98 | 64 | 13 | 14 | 5 | – | – | – | – | – | –
– | – | – | CC(=O)Nc1ccc(C(=O)Oc2ccc(C=CC(=N)N)cc2)cc1 [Compound 31] | 98 | 91 | 65 | 25 | – | – | – | – | – | – | –
– | – | – | N=C(N)C=Cc1ccc(OC(=O)CCCc2ccc([N+](=O)[O-])cc2)cc1 [Compound 38] | 98 | 76 | 27 | 7 | – | – | – | – | – | – | –
– | – | – | CC(C)CC(=O)Oc1ccc(C=CC(=N)N)cc1 [Compound 2, 4-(β-amidinoethenyl)phenyl isovalerate] | 99 | 90 | – | 8 | – | – | – | – | 30 | – | –
– | – | – | N=C(N)C=Cc1ccc(OC(=O)c2ccc(CNC(=O)OCc3ccccc3)cc2)cc1 [Compound 33] | – | – | 29 | 7 | – | – | 89 | – | – | 92 | –
– | – | – | COc1ccc(C(=O)Oc2ccc(C=CC(=N)N)cc2)cc1 [Compound 23] | 98 | 99 | 94 | 42 | – | – | – | – | – | – | –

Structure (SMILES) | IC50 [2] [µM] | IC50 [3] [µM] | inhibition at 10 µM [5] [%] | inhibition at 100 µM ([1]; 1 × 10^-4 M) [%] | inhibition at 10 µM ([1]; 1 × 10^-5 M) [%] | inhibition at 1 µM ([1]; 1 × 10^-6 M) [%] | inhibition at 0.1 µM ([1]; 1 × 10^-7 M) [%] | IC50 [4] [µM] | IC50 [5] [µM] | inhibition at 10 µM [1] [%] | inhibition at 0.1 µM [1] [%] | inhibition at 1 µM [1] [%] | inhibition at 100 µM [1] [%] | inhibition at 10 µM ([2]; at 1×10^-5 M, read-out: percentage inhibition, Trypsin) [%]
Cc1ccc(C(=O)Oc2ccc(C=CC(=N)N)cc2)cc1 [Compound 20] | 0.03 | > 10 | – | 97 | 75 | 38 | 17 | 4 | 1 | – | – | – | – | –
CC=CC=CC(=O)Oc1ccc(C=CC(=N)N)cc1 [Compound 4] | 0.4 | – | – | – | 99 | – | – | 0.9 | 5 | – | 12 | 86 | 100 | –
N=C(N)C=Cc1ccc(OC(=O)[C@H]2CC[C@H](CNC(=O)OCc3ccccc3)CC2)cc1 [Compound 11, 4-(β-amidinoethenyl)phenyl trans-4-benzyloxycarbonylaminomethylcyclohexanecarboxylate] | 5 | > 10 | – | – | 99 | 82 | – | 0.3 | 5 | – | 25 | – | 95 | –
CSc1ccc(C(=O)Oc2ccc(C=CC(=N)N)cc2)cc1 [Compound 28] | – | 3 | – | 97 | 71 | 34 | – | 1 | 0.9 | – | 23 | – | – | 26

Source: patent US4490388A, “Amidine compound and anticomplement agent comprising same” (Torii & Co., Ltd., priority 1981, dated 1984)
